From patent US11578079B2, “SUMO inhibitor compounds and uses thereof” (CITY OF HOPE, priority 2018, dated 2023)

Experiments:
c-Myc = c-Myc activity (Table I, biological activities); parameters: key: + (less active); ++ (active); +++ (most active)
SUMO = target: T1, SUMO (Homo sapiens, UniProt Q9UBT2); experiment: SUMO activity (Table I, biological activities); type: biochemical; parameters: key: + (less active); ++ (active); +++ (most active)
T1 sequence (Q9UBT2 1-640): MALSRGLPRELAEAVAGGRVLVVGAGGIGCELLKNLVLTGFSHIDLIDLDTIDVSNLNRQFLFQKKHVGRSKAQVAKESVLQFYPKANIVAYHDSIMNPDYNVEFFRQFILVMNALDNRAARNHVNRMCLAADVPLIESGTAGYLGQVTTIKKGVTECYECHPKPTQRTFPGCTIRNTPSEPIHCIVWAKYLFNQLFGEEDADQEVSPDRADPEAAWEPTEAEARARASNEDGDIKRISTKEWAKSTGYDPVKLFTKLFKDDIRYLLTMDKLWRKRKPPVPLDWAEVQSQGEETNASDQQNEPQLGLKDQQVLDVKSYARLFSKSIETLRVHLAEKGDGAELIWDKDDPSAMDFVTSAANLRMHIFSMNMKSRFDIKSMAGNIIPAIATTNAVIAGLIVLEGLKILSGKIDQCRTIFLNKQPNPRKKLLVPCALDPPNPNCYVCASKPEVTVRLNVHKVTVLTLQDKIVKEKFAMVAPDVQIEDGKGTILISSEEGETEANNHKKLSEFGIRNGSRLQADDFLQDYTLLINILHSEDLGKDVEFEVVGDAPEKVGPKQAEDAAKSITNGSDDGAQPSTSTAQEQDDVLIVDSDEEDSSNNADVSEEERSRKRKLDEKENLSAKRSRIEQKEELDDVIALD
T1 sequence (Q9UBE0 1-346 partner): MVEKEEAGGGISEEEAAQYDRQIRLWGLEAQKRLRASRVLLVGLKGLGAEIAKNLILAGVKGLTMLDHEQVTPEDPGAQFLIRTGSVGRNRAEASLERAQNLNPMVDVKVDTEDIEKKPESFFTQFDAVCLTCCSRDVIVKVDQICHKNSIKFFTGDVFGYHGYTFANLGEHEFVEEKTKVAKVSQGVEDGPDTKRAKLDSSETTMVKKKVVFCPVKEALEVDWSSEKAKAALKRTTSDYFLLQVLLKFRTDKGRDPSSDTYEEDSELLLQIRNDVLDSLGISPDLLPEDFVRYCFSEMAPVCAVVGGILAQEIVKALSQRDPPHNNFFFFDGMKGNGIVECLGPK

Nedd8 = target: T2, Nedd8 (Homo sapiens, UniProt Q8TBC4); experiment: Nedd8 activity (Table I, biological activities); type: biochemical; parameters: key: + (less active); ++ (active); +++ (most active)
T2 sequence (Q8TBC4 1-463): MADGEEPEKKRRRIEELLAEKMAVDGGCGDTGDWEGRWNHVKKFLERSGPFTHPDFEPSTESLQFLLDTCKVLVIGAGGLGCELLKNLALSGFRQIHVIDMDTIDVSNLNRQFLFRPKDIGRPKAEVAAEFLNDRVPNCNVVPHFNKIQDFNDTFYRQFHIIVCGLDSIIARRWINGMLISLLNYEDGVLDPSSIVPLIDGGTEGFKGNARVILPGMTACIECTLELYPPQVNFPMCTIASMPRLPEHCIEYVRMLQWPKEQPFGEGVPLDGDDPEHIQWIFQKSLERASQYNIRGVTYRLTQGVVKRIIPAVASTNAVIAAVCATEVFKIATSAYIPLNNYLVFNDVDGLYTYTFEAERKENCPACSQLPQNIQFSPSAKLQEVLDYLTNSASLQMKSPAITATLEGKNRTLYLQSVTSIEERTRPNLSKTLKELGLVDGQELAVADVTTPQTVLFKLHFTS
T2 sequence (Q13564 1-534 partner): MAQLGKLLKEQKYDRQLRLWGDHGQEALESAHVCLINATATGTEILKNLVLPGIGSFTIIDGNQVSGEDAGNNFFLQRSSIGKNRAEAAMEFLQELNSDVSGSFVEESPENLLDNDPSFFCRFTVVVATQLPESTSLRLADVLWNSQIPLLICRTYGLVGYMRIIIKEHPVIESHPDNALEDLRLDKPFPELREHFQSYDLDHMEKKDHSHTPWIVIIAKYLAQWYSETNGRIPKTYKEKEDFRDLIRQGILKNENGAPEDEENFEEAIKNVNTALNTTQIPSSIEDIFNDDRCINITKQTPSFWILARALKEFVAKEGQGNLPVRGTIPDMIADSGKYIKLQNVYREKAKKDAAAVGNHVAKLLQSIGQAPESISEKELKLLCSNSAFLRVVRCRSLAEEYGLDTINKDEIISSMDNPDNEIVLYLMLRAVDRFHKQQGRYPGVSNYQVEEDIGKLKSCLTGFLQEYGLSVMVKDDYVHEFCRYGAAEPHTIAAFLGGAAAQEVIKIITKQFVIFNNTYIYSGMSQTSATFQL

Ubiquitin = target: T3, Ubiquitin (Homo sapiens, UniProt P22314); experiment: Ubiquitin activity (Table I, biological activities); type: biochemical; parameters: key: + (less active); ++ (active); +++ (most active)
T3 sequence (P22314 1-1058): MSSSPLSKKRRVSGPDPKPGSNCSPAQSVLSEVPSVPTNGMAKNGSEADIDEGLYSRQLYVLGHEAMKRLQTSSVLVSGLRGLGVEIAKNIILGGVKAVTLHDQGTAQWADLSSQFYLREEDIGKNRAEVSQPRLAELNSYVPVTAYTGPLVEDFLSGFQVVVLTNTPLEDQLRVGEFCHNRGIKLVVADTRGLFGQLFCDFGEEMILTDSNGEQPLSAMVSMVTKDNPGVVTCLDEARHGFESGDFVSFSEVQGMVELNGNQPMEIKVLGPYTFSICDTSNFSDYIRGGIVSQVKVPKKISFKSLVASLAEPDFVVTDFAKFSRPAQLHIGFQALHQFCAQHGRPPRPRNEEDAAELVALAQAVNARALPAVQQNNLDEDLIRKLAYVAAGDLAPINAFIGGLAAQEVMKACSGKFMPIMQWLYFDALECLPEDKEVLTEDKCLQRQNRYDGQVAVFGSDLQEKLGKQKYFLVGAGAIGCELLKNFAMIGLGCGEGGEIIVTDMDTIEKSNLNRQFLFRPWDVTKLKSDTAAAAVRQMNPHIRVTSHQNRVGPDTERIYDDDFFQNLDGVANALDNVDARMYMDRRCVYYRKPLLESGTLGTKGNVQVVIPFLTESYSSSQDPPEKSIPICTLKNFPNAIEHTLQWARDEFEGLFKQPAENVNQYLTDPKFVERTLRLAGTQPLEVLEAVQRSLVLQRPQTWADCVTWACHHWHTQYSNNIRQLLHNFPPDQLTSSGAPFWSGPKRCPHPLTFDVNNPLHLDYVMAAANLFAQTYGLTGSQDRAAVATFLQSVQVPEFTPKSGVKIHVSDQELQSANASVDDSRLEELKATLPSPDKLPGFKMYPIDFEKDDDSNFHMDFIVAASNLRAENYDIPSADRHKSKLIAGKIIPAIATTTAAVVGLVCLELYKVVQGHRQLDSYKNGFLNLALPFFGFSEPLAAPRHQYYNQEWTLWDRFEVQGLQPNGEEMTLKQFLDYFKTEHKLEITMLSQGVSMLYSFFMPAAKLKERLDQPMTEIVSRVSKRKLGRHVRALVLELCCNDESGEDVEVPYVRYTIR

Atg7 = target: T4, Atg7 (Homo sapiens, UniProt O95352); experiment: Atg7 activity (Table I, biological activities); type: biochemical; parameters: key: + (less active); ++ (active); +++ (most active)
T4 sequence (O95352 1-703): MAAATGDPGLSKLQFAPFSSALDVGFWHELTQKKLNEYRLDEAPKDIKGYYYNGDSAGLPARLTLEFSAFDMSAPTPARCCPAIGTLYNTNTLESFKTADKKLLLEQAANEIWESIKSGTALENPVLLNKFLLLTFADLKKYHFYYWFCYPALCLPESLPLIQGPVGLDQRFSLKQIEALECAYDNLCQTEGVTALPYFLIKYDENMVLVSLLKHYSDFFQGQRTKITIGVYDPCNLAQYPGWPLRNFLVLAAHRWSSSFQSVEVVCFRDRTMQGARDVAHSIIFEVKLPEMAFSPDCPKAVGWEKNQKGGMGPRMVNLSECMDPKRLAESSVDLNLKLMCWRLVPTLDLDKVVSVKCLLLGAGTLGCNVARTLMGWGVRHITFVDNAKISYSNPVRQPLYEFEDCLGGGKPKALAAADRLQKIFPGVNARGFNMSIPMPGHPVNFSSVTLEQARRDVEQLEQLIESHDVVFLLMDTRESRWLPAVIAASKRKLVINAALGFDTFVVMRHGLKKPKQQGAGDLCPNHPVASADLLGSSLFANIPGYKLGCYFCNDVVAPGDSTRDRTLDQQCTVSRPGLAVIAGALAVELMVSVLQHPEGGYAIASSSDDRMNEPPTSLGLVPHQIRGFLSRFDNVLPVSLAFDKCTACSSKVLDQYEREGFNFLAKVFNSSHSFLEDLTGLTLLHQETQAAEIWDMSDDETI

[1] = system: cancer stem cell (CSC) populations in patient derived xenograft (PDX) models; experiment: Limited dilution assays of cancer stem cell populations in PDX models (FIG. 1); type: cell-based; settings: 1 μM to 10 μM
Description: FIG. 1. Examination of the effect of compounds 582 and 588 to reduce cancer stem cell (CSC) populations in patient derived xenograft (PDX) models using limited dilution assays.

Row | SUMO (SUMO) | Nedd8 (Nedd8) | Ubiquitin (Ubiquitin) | Atg7 (Atg7) | Structure (SMILES) | c-Myc (c-Myc) | inhibition on PDX cancer-initiating-cell (CIC) frequency [1]
1 | ++ | – | – | + | COC(=O)C1=C(C(=O)NCCN(C)C)C2(C)C=CC1(C(Cc1ccccc1)Nc1ccccc1)O2 (stereo not drawn) [Compound 619] | + | –
2 | ++ | – | + | – | COC(=O)C1=C(C(=O)Nc2ccc(CN(C)C)cc2)C2OC1(C(Cc1ccccc1)Oc1ccccc1)C1OC21 (stereo not drawn) [Compound 545] | ++ | –
3 | ++ | – | – | – | CCOC(=O)C1=C(C(=O)Nc2c(C)cccc2C)C2C=CC1(C(Nc1ccccc1)c1ccc(CN3CCOCC3)cc1)O2 (stereo not drawn) [Compound 582] | ++ | dose-dependent inhibition on PDX cancer-initiating-cell (CIC) frequency, even at 1 μM
4 | ++ | – | – | – | CCOC(=O)C1=C(C(=O)Nc2c(CC)cccc2CC)C2C=CC1(C(Nc1ccccc1)c1ccc(CN3CCOCC3)cc1)O2 (stereo not drawn) [Compound 588] | ++ | only showed inhibition on CIC at high dose 10 μM
5 | + | – | – | ++ | COC(=O)C1=C(CO)C2C=CC1(C(Cc1ccccc1)Oc1ccccc1)O2 (stereo not drawn) [Compound 584] | ++ | –
6 | + | – | – | ++ | COC(=O)C1=C(CO)C2(C)C=CC1(C(Cc1ccccc1)Oc1ccccc1)O2 (stereo not drawn) [Compound 626] | – | –

The next lines start with the molecule.

Row | Structure (SMILES) | SUMO (SUMO) | Nedd8 (Nedd8) | Ubiquitin (Ubiquitin) | Atg7 (Atg7) | c-Myc (c-Myc) | inhibition on PDX cancer-initiating-cell (CIC) frequency [1]
7 | COC(=O)C1=C(C(=O)Nc2ccc(OC)cc2)C2C=CC1(C(Cc1ccccc1)Nc1cccc(CO)c1)O2 (stereo not drawn) [Compound 537] | ++ | ++ | – | – | + | –
8 | Cc1ccc(S(=O)(=O)C2=CC3(C)C=CC2(C(Cc2ccccc2)Nc2ccccc2)O3)cc1 (stereo not drawn) [Compound 531] | + | ++ | – | – | – | –
9 | COC(=O)C1=C(C(=O)NCCN(C)C)C2C=CC1(C(Cc1ccccc1)Nc1cccc(CO)c1)O2 (stereo not drawn) [Compound 535] | +++ | ++ | + | – | ++ | –
10 | CCOC(=O)C1=CC2OC1(C(c1ccccc1)N(C(=O)C(F)(F)F)c1ccccc1)c1ccccc12 (stereo not drawn) [Compound 585] | + | – | – | + | ++ | –
11 | COC(=O)C1=C(C(=O)NCCN2CCN(C)CC2)C2C=CC1(C(Cc1ccccc1)Nc1ccccc1)O2 (stereo not drawn) [Compound 463] | ++ | – | – | ++ | ++ | –
12 | COC(=O)C1=C(C(=O)Nc2ccc(OCCN(C)C)cc2)C2OC1(C(Cc1ccccc1)Oc1ccccc1)C1OC21 (stereo not drawn) [Compound 534] | + | ++ | + | – | ++ | –
13 | COC(=O)C1=C(C(=O)NCCN2CCCCC2)C2C=CC1(C(Cc1ccccc1)Nc1ccccc1)O2 (stereo not drawn) [Compound 462] | ++ | – | – | ++ | ++ | –
14 | COC(=O)C1=C(C(=O)NC2CCN(C)CC2)C2OC1(C(Cc1ccccc1)Oc1ccccc1)C1OC21 (stereo not drawn) [Compound 541] | ++ | ++ | – | – | ++ | –
15 | COC(=O)C1=C(C(N)=O)C2C=CC1(C(Cc1ccccc1)Nc1cccc(CO)c1)O2 (stereo not drawn) [Compound 536] | ++ | ++ | + | – | – | –
16 | COC(=O)C1=C(C(N)=O)C2C=CC1(C(Cc1ccccc1)Nc1ccc(F)cc1)O2 (stereo not drawn) [Compound 540] | ++ | ++ | – | – | ++ | –
